Key:
Assay in all cases: relative viability (nuclei count vs DMSO), 5 days (fraction); higher = more cells survive
NVP-TAE684 + AZD7762 = compound: COc1cc(N2CCC(N3CCN(C)CC3)CC2)ccc1Nc1ncc(Cl)c(Nc2ccccc2S(=O)(=O)C(C)C)n1 [NVP-TAE684] + NC(=O)Nc1cc(-c2cccc(F)c2)sc1C(=O)N[C@H]1CCCNC1 [AZD7762] (partner 0.2 µM)
Procedure, shortened: (§1)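 Nuclei were stained with Hoechst during a one-step fixation (final 0.05% Triton X-100, 1% formaldehyde, 1 ug/ml Hoechst) carried out 5 days after dosing, then counted on 4× images. The cells, lung cancer lines in 1536-well plates, had been dosed by pin tool the day after seeding with one drug alone or a fixed anchor-drug dose plus five library-drug doses (not always all listed) in √10 steps. Relative viability is the nuclei count in treated wells divided by that in vehicle wells, and each value is the median of duplicate plates.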

NVP-TAE684 + Linsitinib = compound: COc1cc(N2CCC(N3CCN(C)CC3)CC2)ccc1Nc1ncc(Cl)c(Nc2ccccc2S(=O)(=O)C(C)C)n1 [NVP-TAE684] + C[C@]1(O)C[C@@H](c2nc(-c3ccc4ccc(-c5ccccc5)nc4c3)c3c(N)nccn32)C1 [Linsitinib] (partner 1 µM)
Procedure, shortened: as §1

[1] = compound: C1=CC=C2C(=C1)N=C(S2)C(C#N)C3=NC(=NC=C3)NCCC4=CN=CC=C4 + C[C@@H](Oc1cc(-c2cnn(C3CCNCC3)c2)cnc1N)c1c(Cl)ccc(F)c1Cl [Crizotinib] (partner 1 µM)
Procedure, shortened: as §1

CUDC-101 + Alpelisib = compound: C#Cc1cccc(Nc2ncnc3cc(OC)c(OCCCCCCC(=O)NO)cc23)c1 [CUDC-101] + Cc1nc(NC(=O)N2CCC[C@H]2C(N)=O)sc1-c1ccnc(C(C)(C)C(F)(F)F)c1 [Alpelisib] (partner 2 µM)
Procedure, shortened: as §1

NVP-TAE684 + Luminespib = compound: COc1cc(N2CCC(N3CCN(C)CC3)CC2)ccc1Nc1ncc(Cl)c(Nc2ccccc2S(=O)(=O)C(C)C)n1 [NVP-TAE684] + CCNC(=O)c1noc(-c2cc(C(C)C)c(O)cc2O)c1-c1ccc(CN2CCOCC2)cc1 [Luminespib] (partner 0.01 µM)
Procedure, shortened: as §1

Row | Cell Line | relative viability (NVP-TAE684 + AZD7762; first compound 0.2 µM) | relative viability (NVP-TAE684 + AZD7762; first compound 0.6325 µM) | relative viability (NVP-TAE684 + AZD7762; first compound 2 µM) | relative viability (NVP-TAE684 + Linsitinib; first compound 0.2 µM) | relative viability (NVP-TAE684 + Linsitinib; first compound 0.6325 µM) | relative viability (NVP-TAE684 + Linsitinib; first compound 2 µM) | relative viability ([1]; first compound 0.005 µM) | relative viability ([1]; first compound 0.01581 µM) | relative viability ([1]; first compound 0.05 µM) | relative viability ([1]; first compound 0.1581 µM) | relative viability ([1]; first compound 0.5 µM) | relative viability (CUDC-101 + Alpelisib; first compound 0.01 µM) | relative viability (CUDC-101 + Alpelisib; first compound 0.03162 µM) | relative viability (CUDC-101 + Alpelisib; first compound 0.1 µM) | relative viability (CUDC-101 + Alpelisib; first compound 0.3162 µM) | relative viability (CUDC-101 + Alpelisib; first compound 1 µM) | relative viability (NVP-TAE684 + Luminespib; first compound 0.2 µM) | relative viability (NVP-TAE684 + Luminespib; first compound 0.6325 µM) | relative viability (NVP-TAE684 + Luminespib; first compound 2 µM)
1 | NCI-H650 | 1.03 | 0.848 | 0.853 | 0.982 | 0.638 | 0.652 | 0.484 | 0.67 | 0.568 | 0.672 | 0.704 | 1.19 | 1.06 | 1.29 | 1.17 | 0.885 | 0.776 | 0.682 | 0.489
2 | NCI-H727 | 0.588 | 0.58 | 0.344 | 0.331 | 0.284 | 0.216 | 0.793 | 0.803 | 0.739 | 0.836 | 0.529 | 0.59 | 0.478 | 0.698 | 0.595 | 0.295 | 0.24 | 0.382 | 0.216
3 | NCI-H838 | – | 0.857 | 0.853 | 1.22 | 0.955 | 0.372 | 0.546 | 0.87 | 0.817 | 0.861 | 0.555 | 1.01 | 0.89 | 1.06 | 1.08 | 0.914 | 0.27 | 0.275 | 0.282
4 | NCI-H1355 | 0.862 | 0.691 | 0.479 | 0.724 | 0.826 | 0.535 | 1.11 | 1.16 | 1.04 | 1.03 | 0.949 | 0.873 | 0.738 | 1.02 | 0.807 | 0.566 | 0.594 | 0.687 | 0.471
5 | NCI-H1437 | 1.21 | 1.09 | 1.07 | 1.01 | 1.02 | 0.545 | 0.66 | 1.09 | 0.932 | 1.09 | 0.679 | 1.04 | 0.886 | 0.988 | 0.983 | 0.679 | 1.14 | 1.13 | 1.08
6 | NCI-H1651 | 0.423 | 0.48 | 0.401 | 1.02 | 0.98 | 0.935 | 0.746 | 0.883 | 0.855 | 0.864 | 0.849 | 1.03 | 0.772 | 1 | 0.93 | 0.817 | 1.24 | – | 0.693
7 | NCI-H1666 | 0.898 | 0.889 | 0.652 | 0.828 | 0.605 | 0.591 | 1.07 | 0.975 | 1.01 | 1 | 0.907 | 0.958 | 0.949 | 1.05 | 0.974 | 0.498 | 0.945 | 0.975 | 0.843
8 | NCI-H1734 | 0.481 | 0.443 | 0.432 | 0.849 | 0.92 | 0.818 | 0.555 | 0.734 | 0.684 | 0.693 | 0.741 | 0.754 | 0.654 | 0.773 | 0.813 | 0.596 | 0.221 | 0.164 | 0.166
9 | NCI-H1755 | 0.434 | 0.427 | 0.328 | 1.05 | 1.05 | – | 0.809 | 0.964 | 0.844 | 1.02 | 0.831 | 0.96 | 0.944 | 0.956 | 0.972 | 0.844 | 0.304 | 0.272 | 0.445
10 | NCI-H1792 | 0.678 | 0.733 | 0.394 | 0.451 | 0.509 | 0.504 | – | 1.08 | 0.997 | 1.33 | 0.616 | 0.702 | 0.57 | 0.695 | 0.734 | 0.645 | 0.396 | 0.411 | 0.359
11 | NCI-H1915 | 0.699 | 0.742 | 0.595 | 1.16 | 1.18 | 1.01 | 0.718 | 0.955 | 0.928 | 0.994 | 0.565 | 1.07 | 0.997 | 1.11 | 1.04 | 0.788 | 0.631 | 0.821 | 0.699
12 | NCI-H1944 | 0.507 | 0.441 | 0.348 | 1.16 | 1.17 | 1.3 | 1.15 | 1.18 | 1.02 | 1.12 | 1.1 | 0.819 | 0.682 | 0.799 | 0.756 | 0.514 | 0.667 | 0.741 | 0.58
13 | NCI-H1975 | 0.694 | 0.649 | 0.381 | 1.01 | 0.97 | 0.269 | 0.766 | 1.18 | 0.954 | 1.14 | 0.667 | 0.714 | 0.634 | 0.686 | 0.673 | 0.538 | 0.23 | 0.138 | 0.167
14 | NCI-H1993 | 0.772 | 0.826 | 0.584 | – | 0.66 | 0.658 | 0.684 | 0.844 | 0.762 | 0.94 | 0.832 | 0.742 | 0.751 | 0.766 | 0.671 | 0.639 | – | 0.785 | 0.499
15 | NCI-H2085 | 0.991 | 0.953 | 0.797 | 0.928 | 0.82 | 0.7 | 0.682 | 0.887 | 0.792 | 0.825 | 0.792 | 0.957 | 1.01 | 0.925 | 1.01 | 0.868 | 0.435 | 0.39 | 0.294
16 | NCI-H2087 | 1.47 | 1.37 | 1.22 | 1.04 | 1.04 | 0.982 | 0.908 | 0.807 | 0.76 | 0.954 | 0.727 | 1.02 | 1.02 | 0.979 | 1.05 | 0.783 | 0.146 | 0.205 | 0.151
17 | NCI-H2126 | 1.03 | 1.01 | 0.684 | 0.701 | 0.684 | 0.688 | 0.825 | 0.989 | 1.02 | 1.04 | 0.881 | 0.771 | 0.706 | 0.7 | 0.74 | 0.531 | 0.94 | 0.845 | 0.398
18 | NCI-H2347 | 0.723 | 0.613 | 0.628 | 1.06 | 0.976 | 0.875 | 0.724 | 0.669 | 0.533 | 0.699 | 0.723 | 1.09 | 1.08 | 1.09 | 1.11 | 1.03 | 0.245 | 0.264 | 0.45
19 | NCI-H2405 | 0.767 | 0.598 | 0.31 | – | 0.849 | 0.573 | 0.819 | 0.915 | 0.872 | – | 0.809 | 0.952 | 0.574 | 0.87 | 1.22 | 0.603 | 0.703 | 0.694 | 0.386
20 | NCI-H3122 | 0.22 | 0.184 | 0.127 | 0.266 | 0.222 | 0.184 | 0.245 | 0.305 | 0.279 | 0.296 | 0.296 | 0.666 | 0.83 | 0.808 | 0.875 | 0.969 | 0.0817 | 0.0775 | 0.068
21 | PC-3 [JPC-3] | 0.821 | 0.673 | 0.54 | 0.96 | 0.934 | 0.843 | 0.712 | 1.07 | 1.01 | 0.948 | 0.846 | 1.04 | 0.999 | 0.775 | 0.683 | 0.307 | 0.614 | 0.639 | 0.601
22 | PC-14 | 0.339 | 0.275 | 0.224 | 0.934 | 1.1 | 0.851 | 0.856 | 0.961 | 0.929 | 0.972 | 0.744 | 0.983 | 0.894 | 0.62 | 0.673 | 0.287 | 0.157 | – | 0.144
23 | RERF-LC-KJ | 0.97 | 0.985 | 0.729 | 0.921 | 1.01 | – | 0.942 | 0.856 | 0.819 | 0.891 | 0.749 | 0.795 | 0.835 | 0.828 | 0.835 | 0.742 | 1.65 | 1.21 | 0.587

— the supplement of paper PMC10307832
